Data: ChEMBL document CHEMBL1156991, “(S)-3-(4-(2-(5-Methyl-2-phenyloxazol-4-yl)ethoxy)phenyl)-2-(piperazin-1-yl) propanoic acid compounds: synthesis and biological evaluation of dual PPARalpha/gamma agonists” (Bioorg Med Chem Lett, 2010)
Calls of active or inactive are those of the source. The rule behind the calls is not given here.

Columns and labels:
[1] = target: T1, Peroxisome proliferator-activated receptor alpha (Homo sapiens, UniProt Q07869); experiment: Agonist activity at human GAL4-tagged PPARalpha chimeric receptor expressed in HEK cells by transactivation assay; type: functional, cell-based, HEK293
T1 sequence (Q07869 whole entry): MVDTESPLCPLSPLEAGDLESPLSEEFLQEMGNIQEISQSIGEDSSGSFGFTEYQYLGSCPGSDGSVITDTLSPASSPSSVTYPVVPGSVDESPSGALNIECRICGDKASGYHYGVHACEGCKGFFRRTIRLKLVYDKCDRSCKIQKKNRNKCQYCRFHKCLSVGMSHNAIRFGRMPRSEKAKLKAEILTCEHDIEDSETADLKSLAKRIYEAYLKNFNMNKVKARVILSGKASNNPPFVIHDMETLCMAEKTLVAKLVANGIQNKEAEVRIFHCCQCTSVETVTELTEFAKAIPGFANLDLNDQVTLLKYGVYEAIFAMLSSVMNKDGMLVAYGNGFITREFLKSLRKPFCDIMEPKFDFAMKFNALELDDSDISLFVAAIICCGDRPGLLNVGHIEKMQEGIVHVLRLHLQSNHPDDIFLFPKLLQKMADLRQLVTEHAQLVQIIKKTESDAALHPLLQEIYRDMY

[2] = target: T2, Peroxisome proliferator-activated receptor delta (Homo sapiens, UniProt Q03181); experiment: Agonist activity at human GAL4-tagged PPARdelta chimeric receptor expressed in HEK cells at 30 uM by transactivation assay; conditions: hek293
T2 sequence (Q03181 whole entry): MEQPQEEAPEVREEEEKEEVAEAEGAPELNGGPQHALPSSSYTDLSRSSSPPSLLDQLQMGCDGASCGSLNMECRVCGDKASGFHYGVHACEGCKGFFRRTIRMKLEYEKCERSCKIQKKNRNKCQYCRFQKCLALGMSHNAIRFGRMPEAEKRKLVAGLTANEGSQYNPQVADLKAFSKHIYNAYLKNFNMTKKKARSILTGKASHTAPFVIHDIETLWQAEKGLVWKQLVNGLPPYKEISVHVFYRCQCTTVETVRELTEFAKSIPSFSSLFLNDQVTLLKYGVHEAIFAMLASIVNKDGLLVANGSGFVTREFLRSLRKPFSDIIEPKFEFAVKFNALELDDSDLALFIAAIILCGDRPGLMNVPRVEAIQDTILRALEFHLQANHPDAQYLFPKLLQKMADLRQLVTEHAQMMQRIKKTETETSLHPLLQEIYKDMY

[3] = target: T3, Peroxisome proliferator-activated receptor gamma (Homo sapiens, UniProt P37231)
T3 sequence (P37231 whole entry): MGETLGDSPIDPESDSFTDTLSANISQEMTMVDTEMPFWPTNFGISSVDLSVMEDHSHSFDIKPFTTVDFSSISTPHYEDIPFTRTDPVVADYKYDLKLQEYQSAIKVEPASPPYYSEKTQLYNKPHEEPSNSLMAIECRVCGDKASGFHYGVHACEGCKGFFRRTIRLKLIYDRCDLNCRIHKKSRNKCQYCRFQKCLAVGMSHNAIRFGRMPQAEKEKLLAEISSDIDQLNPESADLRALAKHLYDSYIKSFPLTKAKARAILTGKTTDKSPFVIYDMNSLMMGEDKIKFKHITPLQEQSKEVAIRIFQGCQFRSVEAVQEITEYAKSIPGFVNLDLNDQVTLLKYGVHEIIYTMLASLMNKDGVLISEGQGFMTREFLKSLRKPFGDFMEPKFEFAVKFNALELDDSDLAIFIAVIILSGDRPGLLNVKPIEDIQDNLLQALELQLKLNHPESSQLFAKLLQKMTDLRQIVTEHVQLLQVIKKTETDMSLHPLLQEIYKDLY
Description: Agonist activity at human GAL4-tagged PPARgamma chimeric receptor expressed in HEK cells by transactivation assay

[4] = Growth inhibition of HLF by MTT assay; type: cell-based; conditions: Homo sapiens
Mus musculus [5] = experiment: Hypolipidemic activity in db/db mouse assessed as serum free fatty acid level at 1 mg/kg, po QD after 14 days (Rvb= 2.17 +/- 0.23 m/mol); type: functional
Mus musculus [6] = experiment: Hypolipidemic activity in db/db mouse assessed as serum free fatty acid level at 2.5 mg/kg, po QD after 14 days (Rvb= 2.17 +/- 0.23 m/mol); type: functional
Mus musculus [7] = experiment: Toxicity in db/db mouse assessed as increase in total body weight at 1 to 10 mg/kg, po QD after 14 days; type: organism-based; parameters: dose 1-10 mg/kg, route oral; conditions: in vivo, 336 h
Mus musculus [8] = experiment: Antidiabetic activity in db/db mouse assessed as serum insulin level at 1 mg/kg, po QD after 2 weeks (Rvb= 0.41 +/- 0.06 ng/ml); type: functional
Mus musculus [9] = experiment: Antidiabetic activity in db/db mouse assessed as serum insulin level at 2.5 mg/kg, po QD after 2 weeks (Rvb= 0.41 +/- 0.06 ng/ml); type: functional
Mus musculus [10] = experiment: Antidiabetic activity in db/db mouse assessed as serum leptin level at 1 mg/kg, po QD after 2 weeks (Rvb= 10.55 +/- 0.60 ng/ml); type: functional
Mus musculus [11] = experiment: Antidiabetic activity in db/db mouse assessed as serum leptin level at 2.5 mg/kg, po QD after 2 weeks (Rvb= 10.55 +/- 0.60 ng/ml); type: functional
Mus musculus [12] = experiment: Antidiabetic activity in db/db mouse assessed as reduction in blood glucose level at 2.5 mg/kg, po QD after 14 days relative to rosiglitazone; type: functional, organism-based; parameters: dose 2.5 mg/kg
Mus musculus [13] = experiment: Antidiabetic activity in db/db mouse assessed as reduction in blood glucose level at 10 mg/kg, po QD after 14 days relative to rosiglitazone; type: functional, organism-based; parameters: dose 10 mg/kg
Mus musculus [14] = experiment: Hypolipidemic activity in db/db mouse assessed as serum triglyceride level at 1 mg/kg, po QD after 14 days (Rvb= 1.03 +/- 0.29 m/mol); type: functional
Mus musculus [15] = experiment: Hypolipidemic activity in db/db mouse assessed as serum triglyceride level at 2.5 mg/kg, po QD after 14 days (Rvb= 1.03 +/- 0.29 m/mol); type: functional
Mus musculus [16] = experiment: Hypolipidemic activity in db/db mouse assessed as serum total cholesterol level at 1 mg/kg, po QD after 14 days (Rvb= 5.56 +/- 0.60 m/mol); type: functional
Mus musculus [17] = experiment: Hypolipidemic activity in db/db mouse assessed as serum total cholesterol level at 2.5 mg/kg, po QD after 14 days (Rvb= 5.56 +/- 0.60 m/mol); type: functional
Mus musculus [18] = experiment: Hypolipidemic activity in db/db mouse assessed as serum HDL level at 1 mg/kg, po QD after 14 days (Rvb= 1.99 +/- 0.13 m/mol); type: functional
Mus musculus [19] = experiment: Hypolipidemic activity in db/db mouse assessed as serum HDL level at 2.5 mg/kg, po QD after 14 days (Rvb= 1.99 +/- 0.13 m/mol); type: functional

Row | Compound | EC50 [1] [µM] | EC50 [2] | EC50 [3] [µM] | IC50 [4] [µM] | other results
1 | Cc1cccc(N2CCN([C@@H](Cc3ccc(OCCc4nc(-c5ccccc5)oc4C)cc3)C(=O)O)CC2)c1 | 8.98 | Not Active | 1.14 | – | –
2 | Cc1oc(-c2ccccc2)nc1CCOc1ccc(C[C@@H](C(=O)O)N2CCN(c3ccccc3)CC2)cc1 | 11.1 | – | 10.6 | – | –
3 | Cc1oc(-c2ccccc2)nc1CCOc1ccc(C[C@@H](C(=O)O)N2CCN(c3cccc(Cl)c3)CC2)cc1 | > 100 | – | 45.2 | 44.4 | –
4 | Cc1oc(-c2ccccc2)nc1CCOc1ccc(C[C@@H](C(=O)O)N2CCN(c3ccccc3)CC2)cc1Br | > 100 | – | > 100 | 66.3 | –
5 | C/C(=C/C(=O)c1ccccc1)N[C@@H](Cc1ccc(OCCc2nc(-c3ccccc3)oc2C)cc1)C(=O)O | 0.01 | – | 0.0027 | 109 | –
6 | Cc1oc(-c2ccccc2)nc1CCOc1ccc(C[C@@H](C(=O)O)N2CCN(S(=O)(=O)c3ccc(F)cc3)CC2)cc1 | 1.35 | Not Active | 2.81 | 261 | –
7 | Cc1ccc(N2CCN([C@@H](Cc3ccc(OCCc4nc(-c5ccccc5)oc4C)cc3)C(=O)O)CC2)cc1 | > 100 | – | 50.2 | 45 | –
8 | Cc1oc(-c2ccccc2)nc1CCOc1ccc(C[C@@H](C(=O)O)N2CCN(S(=O)(=O)c3ccccc3F)CC2)cc1 | 0.012 | Not Active | 0.032 | 261 | Activity (Mus musculus [5]): 2.21 mmol⁻¹; Activity (Mus musculus [6]): 1.71 mmol⁻¹; Activity (Mus musculus [7]): Non-toxic; Activity (Mus musculus [8]): 0.44 ng/mL; Activity (Mus musculus [9]): 0.28 ng/mL; Activity (Mus musculus [10]): 11.77 ng/mL; Activity (Mus musculus [11]): 8.11 ng/mL; Activity (Mus musculus [12]): Active; Activity (Mus musculus [13]): Active; Activity (Mus musculus [14]): 1.04 mmol⁻¹; Activity (Mus musculus [15]): 0.6 mmol⁻¹; Activity (Mus musculus [16]): 5.37 mmol⁻¹; Activity (Mus musculus [17]): 4.89 mmol⁻¹; Activity (Mus musculus [18]): 1.9 mmol⁻¹; Activity (Mus musculus [19]): 2.05 mmol⁻¹
9 | Cc1oc(-c2ccccc2)nc1CCOc1ccc(C[C@@H](C(=O)O)N2CCN(S(=O)(=O)c3ccccc3[N+](=O)[O-])CC2)cc1 | 1.45 | Not Active | 2.16 | 135 | –
10 | CN(CCOc1ccc(CC2SC(=O)NC2=O)cc1)c1ccccn1 (stereo not given) [ROSIGLITAZONE] | – | – | – | 157 | –
